Laboratory results as given in PMC12292521, “Discovery of a Potent Antimicrobial Peptide Through Rational Design: A New Frontier in Pathogen Control” (Biomolecules, 2025).
Peptide text beside a SMILES is read from it.

Experiments:
P. aeruginosa biofilm = assay: Antibiofilm activity (crystal violet); type: cell-based, Pseudomonas aeruginosa; conditions: RKW at ½ and ¼ MIC (10 and 5 μM); OD 630 nm vs control; three independent experiments; ANOVA p < 0.05; greatest inhibition at ¼ MIC
Experimental: Therefore, the minimum inhibitory concentration (MIC) and MBC were evaluated. […] Subsequently, the antibiofilm activity of the peptide was tested according to Festa et al.. Specifically, two different concentrations of peptide were used, corresponding to ½ and ¼ of the estimated MIC value, which guarantee the optimal bacterial growth conditions necessary to allow biofilm production. Biofilm production (%) was calculated based on Optical Density (measured at 630 nm) outputs, compared to the control group.
To compare the percentages of biofilm production across different samples, a one-way analysis of variance (ANOVA) was conducted using Prism v. 10.0 (GraphPad, Graph-Pad Software, La Jolla, CA, USA). Significant differences between sample pairs were identified with Tukey’s post hoc test (p < 0.05).

[1] = system: Aspergillus brasiliensis ATCC 16404; assay: Quantitative suspension test, fungicidal activity, BS EN 1650:2019; type: cell-based; parameters: key to Fungicidal activity verdict: Active: For fungi: ACTIVE if log R ≥ 4 according to BS EN 1650:2019; Not Active: For fungi: ACTIVE if log R ≥ 4 according to BS EN 1650:2019; conditions: spores, 60 min, 37 °C, BSA 0.3 g/L
Source text: (§1) The method is based on the suspension test according to BS EN 1276:2019, which specifies a quantitative suspension analysis for the evaluation of the bactericidal activity of chemical disinfectants and antiseptics used in food, industrial, domestic, and institutional areas against a panel of microorganisms under conditions that more closely simulate practical use. Briefly, S. aureus ATCC 6538, P. aeruginosa ATCC 15442, and Staphylococcus epidermidis ATCC 12228 were used as test organisms at a bacterial concentration of 1.0 × 10^8 colony-forming units (CFU) per mL (CFU/mL). In the test, BSA (Bovine Serum Albumin) (0.3 g/L) was used as an interfering substance to mimic clean conditions. […] The reaction mixture was incubated at 37 °C for 60 min before transferring each sample to a tube containing a neutralizer solution consisting of 30 g/L polysorbate 80, 1 g/L sodium thiosulfate, 3 g/L lecithin, 1 g/L tryptone, 8.5 g/L NaCl, 100 mL/L phosphate buffer and water. The negative control (untreated cells) was prepared using PBS instead of biocides. The solutions were then plated onto Tryptone Soy Agar (TSA) and incubated at 37 °C for 48 h to determine the logarithmic CFU/mL reduction, according to the following Equation:(2) log R = log (N0) − log (Na) where R refers to the reduction in viability, N refers to the number of CFU/mL in the test mixture at the beginning of the contact time, and Na refers to the number of CFU/mL in the test mixture at the end of the contact time. […] The test method and the minimum requirements for fungicidal activity of chemical disinfectant and antiseptic products were performed according to BS EN 1650:2019. The fungicidal activity was studied using the vegetative cells of Candida albicans ATCC 10231 and the spores of Aspergillus brasiliensis ATCC 16404 as test organisms. […] The mixture was maintained at 37 °C for a contact time of 60 min. At the end of this contact time, an aliquot was taken, and the fungicidal activity was immediately neutralized with a solution consisting of 30 g/L polysorbate 80, 1 g/L sodium thiosulfate, 3 g/L lecithin, 1 g/L tryptone, 8.5 g/L NaCl, 100 mL/L phosphate buffer and water. The samples were then plated onto malt extract agar (MEA) and incubated at 30 °C for 48 h to determine the numbers of surviving fungi as the logarithmic CFU/mL reduction, calculated according to Equation (2).

[2] = system: Candida albicans ATCC 10231; assay: as above; type: cell-based; parameters: key to Fungicidal activity verdict: Active: For fungi: ACTIVE if log R ≥ 4 according to BS EN 1650:2019; Not Active: For fungi: ACTIVE if log R ≥ 4 according to BS EN 1650:2019; conditions: vegetative cells, 60 min, 37 °C, BSA 0.3 g/L
Source text: as §1

`CC[C@H](C)[C@H](NC(=O)[C@H](Cc1c[nH]c2ccccc12)NC(=O)[C@H](CCCCN)NC(=O)[C@@H](N)CCCNC(=N)N)C(=O)N[C@@H](CC(C)C)C(=O)N[C@@H](CCCCN)C(=O)N[C@@H](Cc1c[nH]c2ccccc12)C(=O)N[C@@H](CC(C)C)C(=O)N[C@@H](CCCNC(=N)N)C(=O)N[C@H](C(=O)N[C@@H](Cc1c[nH]c2ccccc12)C(=O)N[C@@H](CCCCN)C(=O)N[C@@H](CCCCN)C(N)=O)[C@@H](C)O` [RKW] (H-RKWILKWLRTWKK-NH2; N-terminus assumed) was tested, and the Biofilm production (P. aeruginosa biofilm) was “significantly inhibited the biofilm production”, the Fungicidal activity verdict ([1]; RKW 5 µM) was “Na = 3.40 × 10^6 log Na = 6.53 log R = −0.28 Not Active” and the “Na (CFU/mL at the end of the contact time)” value (“Na” for short) ([1]; RKW 5 µM) was 3.40 × 10^6 CFU/mL. For the same molecule, the Fungicidal activity verdict ([1]; RKW 10 µM) was “Na = 3.30 × 10^6 log Na = 6.52 log R = −0.29 Not Active”, the “Na” value ([1]; RKW 10 µM) was 3.30 × 10^6 CFU/mL and the Fungicidal activity verdict ([1]; RKW 20 µM) was “Na = 2.20 × 10^6 log Na = 6.34 log R = −0.09 Not Active”. The “Na” value ([1]; RKW 20 µM) was 2.20 × 10^6 CFU/mL, the Fungicidal activity verdict ([1]; RKW 50 µM) was “Na = 2.20 × 10^6 log Na = 6.34 log R = −0.09 Not Active” and the “Na” value ([1]; RKW 50 µM) was 2.20 × 10^6 CFU/mL. For the same molecule, the Fungicidal activity verdict ([1]; RKW 100 µM) was “Na = 2.20 × 10^6 log Na = 6.34 log R = −0.09 Not Active”, the “Na” value ([1]; RKW 100 µM) was 2.20 × 10^6 CFU/mL and the Fungicidal activity verdict ([2]; RKW 5 µM) was “Na = 7.70 × 10^4 log Na = 4.89 log R = 1.71 Not Active”. For the same molecule, the “Na” value ([2]; RKW 5 µM) was 7.70 × 10^4 CFU/mL, the Fungicidal activity verdict ([2]; RKW 10 µM) was “Na = 1.08 × 10^3 log Na = 3.03 log R = 3.57 Not Active” and the “Na” value ([2]; RKW 10 µM) was 1.08 × 10^3 CFU/mL. For the same molecule, the Fungicidal activity verdict ([2]; RKW 20 µM) was “Na = 2.75 × 10^2 log Na = 2.44 log R = 4.16 Active”, the “Na” value ([2]; RKW 20 µM) was 2.75 × 10^2 CFU/mL and the Fungicidal activity verdict ([2]; RKW 50 µM) was “Na = 2.75 × 10^2 log Na = 2.44 log R = 4.16 Active”. The “Na” value ([2]; RKW 50 µM) was 2.75 × 10^2 CFU/mL, the Fungicidal activity verdict ([2]; RKW 100 µM) was “Na = 2.75 × 10^2 log Na = 2.44 log R = 4.16 Active” and the “Na” value ([2]; RKW 100 µM) was 2.75 × 10^2 CFU/mL.
